{"source": "patent US20120270237A9", "about": "“METHODS FOR THE IDENTIFICATION OF KINASE INTERACTING MOLECULES AND FOR THE PURIFICATION OF KINASE PROTEINS” (Cellzone AG, priority 2009, published 2012)", "assay_in_all_cases": "Kinobeads competition binding with immobilized CZC25342, mixed HeLa placenta lysates (Example 5, Table 7)", "key": {"[1]": {"biological_target": "T1, kinases from mixed HeLa placenta lysates (Homo sapiens, UniProt P15735)", "T1 construct": "capturing and identification of kinases from mixed HeLa placenta lysates; endogenous in cells; host or cells: mixed lysate of HeLa cells and placenta tissue", "T1 sequence (P15735 whole entry)": "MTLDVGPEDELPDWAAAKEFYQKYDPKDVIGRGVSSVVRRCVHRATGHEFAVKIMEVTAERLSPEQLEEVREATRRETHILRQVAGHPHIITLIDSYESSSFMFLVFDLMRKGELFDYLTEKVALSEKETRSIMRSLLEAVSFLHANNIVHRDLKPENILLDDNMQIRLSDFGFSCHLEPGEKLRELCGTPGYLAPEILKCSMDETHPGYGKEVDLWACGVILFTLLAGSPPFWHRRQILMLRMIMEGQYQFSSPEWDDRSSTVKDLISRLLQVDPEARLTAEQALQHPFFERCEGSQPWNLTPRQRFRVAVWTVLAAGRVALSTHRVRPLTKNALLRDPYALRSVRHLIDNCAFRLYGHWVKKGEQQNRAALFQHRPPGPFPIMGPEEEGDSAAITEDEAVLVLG", "conditions": "kinase PHKg2; 10 μM free compound; HeLa Placenta lysate mix", "procedure": "(§1) To one aliquot of cell lysate 10 μM of the free compound (FIG. 2, CZC25342) was added and allowed to bind to proteins in the lysate. Then the affinity matrix with the immobilized compound was added to capture proteins that were not interacting with the previously added free compound. Beads were separated from the lysate and bead bound proteins were eluted in SDS sample buffer and subsequently separated by SDS-Polyacrylamide gel electrophoresis (FIG. 11). Suitable gel bands were cut out and subjected to in-gel proteolytic digestion with trypsin. The second lysate aliquot was processed identically, however no free compound was added (DMSO solvent control). Peptides originating from samples 1 and 2 were labeled with iTRAQ reagents (iTRAQ 114 and iTRAQ 117) and the combined samples were analyzed with a nano-flow liquid chromatography system coupled online to a tandem mass spectrometer (LC-MS/MS) experiment followed by iTRAQ reporter ion quantification in the MS/MS spectra as described in Example 2. The identified kinases are shown in Table 7 including the percent competition values for the sample to which 10 μM free compound had been added. In total of 83 different kinases were identified and competed by different degrees."}, "[2]": {"biological_target": "T2, kinases from mixed HeLa placenta lysates (Homo sapiens, UniProt Q9H422)", "T2 construct": "capturing and identification of kinases from mixed HeLa placenta lysates; endogenous in cells; host or cells: mixed lysate of HeLa cells and placenta tissue", "T2 sequence (Q9H422 whole entry)": "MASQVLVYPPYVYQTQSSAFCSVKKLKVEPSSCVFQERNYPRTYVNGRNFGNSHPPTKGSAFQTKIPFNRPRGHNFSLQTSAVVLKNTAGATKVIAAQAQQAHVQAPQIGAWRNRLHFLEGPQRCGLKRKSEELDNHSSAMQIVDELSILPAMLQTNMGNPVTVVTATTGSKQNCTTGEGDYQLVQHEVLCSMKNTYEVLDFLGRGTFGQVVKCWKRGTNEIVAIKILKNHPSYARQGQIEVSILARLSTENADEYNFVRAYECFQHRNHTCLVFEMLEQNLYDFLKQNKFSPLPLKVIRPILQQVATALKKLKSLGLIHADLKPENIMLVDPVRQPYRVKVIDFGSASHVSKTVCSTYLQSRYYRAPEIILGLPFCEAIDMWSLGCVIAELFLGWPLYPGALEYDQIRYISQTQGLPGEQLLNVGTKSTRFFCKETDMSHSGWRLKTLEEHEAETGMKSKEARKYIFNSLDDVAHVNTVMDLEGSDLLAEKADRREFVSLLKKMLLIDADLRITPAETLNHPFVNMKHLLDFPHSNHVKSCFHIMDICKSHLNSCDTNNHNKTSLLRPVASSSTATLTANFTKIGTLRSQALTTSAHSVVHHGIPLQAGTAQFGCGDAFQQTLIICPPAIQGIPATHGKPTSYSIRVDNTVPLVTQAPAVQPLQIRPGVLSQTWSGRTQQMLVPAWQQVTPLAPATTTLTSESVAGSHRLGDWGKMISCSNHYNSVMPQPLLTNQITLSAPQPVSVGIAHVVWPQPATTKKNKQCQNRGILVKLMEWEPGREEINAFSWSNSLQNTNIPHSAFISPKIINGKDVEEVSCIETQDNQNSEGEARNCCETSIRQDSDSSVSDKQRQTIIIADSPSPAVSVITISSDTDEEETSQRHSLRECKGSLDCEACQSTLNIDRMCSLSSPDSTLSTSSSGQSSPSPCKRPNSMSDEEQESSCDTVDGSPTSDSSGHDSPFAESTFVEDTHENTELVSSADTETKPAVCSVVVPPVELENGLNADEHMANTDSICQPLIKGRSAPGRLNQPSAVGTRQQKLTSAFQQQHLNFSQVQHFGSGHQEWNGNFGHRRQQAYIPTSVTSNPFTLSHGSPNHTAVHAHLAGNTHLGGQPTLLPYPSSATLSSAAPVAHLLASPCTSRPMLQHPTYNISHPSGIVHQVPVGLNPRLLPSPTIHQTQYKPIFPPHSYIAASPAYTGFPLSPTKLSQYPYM", "conditions": "kinase HIPK3; 10 μM free compound; HeLa Placenta lysate mix", "procedure": "as §1"}, "[3]": {"biological_target": "T3, kinases from mixed HeLa placenta lysates (Homo sapiens, UniProt Q15349)", "T3 construct": "capturing and identification of kinases from mixed HeLa placenta lysates; endogenous in cells; host or cells: mixed lysate of HeLa cells and placenta tissue", "conditions": "kinase RSK3; 10 μM free compound; HeLa Placenta lysate mix", "procedure": "as §1"}, "[4]": {"biological_target": "T4, kinases from mixed HeLa placenta lysates (Homo sapiens, UniProt P50750)", "T4 construct": "capturing and identification of kinases from mixed HeLa placenta lysates; endogenous in cells; host or cells: mixed lysate of HeLa cells and placenta tissue", "conditions": "kinase CDK9; 10 μM free compound; HeLa Placenta lysate mix", "procedure": "as §1"}, "[5]": {"biological_target": "T5, kinases from mixed HeLa placenta lysates (Homo sapiens, UniProt P36897)", "T5 construct": "capturing and identification of kinases from mixed HeLa placenta lysates; endogenous in cells; host or cells: mixed lysate of HeLa cells and placenta tissue", "conditions": "kinase TGFbR1; 10 μM free compound; HeLa Placenta lysate mix", "procedure": "as §1"}, "[6]": {"biological_target": "T6, kinases from mixed HeLa placenta lysates (Homo sapiens, UniProt P23458)", "T6 construct": "capturing and identification of kinases from mixed HeLa placenta lysates; endogenous in cells; host or cells: mixed lysate of HeLa cells and placenta tissue", "conditions": "kinase JAK1; 10 μM free compound; HeLa Placenta lysate mix", "procedure": "as §1"}, "[7]": {"biological_target": "T7, kinases from mixed HeLa placenta lysates (Homo sapiens, UniProt Q13976)", "T7 construct": "capturing and identification of kinases from mixed HeLa placenta lysates; endogenous in cells; host or cells: mixed lysate of HeLa cells and placenta tissue", "T7 sequence (Q13976 whole entry)": "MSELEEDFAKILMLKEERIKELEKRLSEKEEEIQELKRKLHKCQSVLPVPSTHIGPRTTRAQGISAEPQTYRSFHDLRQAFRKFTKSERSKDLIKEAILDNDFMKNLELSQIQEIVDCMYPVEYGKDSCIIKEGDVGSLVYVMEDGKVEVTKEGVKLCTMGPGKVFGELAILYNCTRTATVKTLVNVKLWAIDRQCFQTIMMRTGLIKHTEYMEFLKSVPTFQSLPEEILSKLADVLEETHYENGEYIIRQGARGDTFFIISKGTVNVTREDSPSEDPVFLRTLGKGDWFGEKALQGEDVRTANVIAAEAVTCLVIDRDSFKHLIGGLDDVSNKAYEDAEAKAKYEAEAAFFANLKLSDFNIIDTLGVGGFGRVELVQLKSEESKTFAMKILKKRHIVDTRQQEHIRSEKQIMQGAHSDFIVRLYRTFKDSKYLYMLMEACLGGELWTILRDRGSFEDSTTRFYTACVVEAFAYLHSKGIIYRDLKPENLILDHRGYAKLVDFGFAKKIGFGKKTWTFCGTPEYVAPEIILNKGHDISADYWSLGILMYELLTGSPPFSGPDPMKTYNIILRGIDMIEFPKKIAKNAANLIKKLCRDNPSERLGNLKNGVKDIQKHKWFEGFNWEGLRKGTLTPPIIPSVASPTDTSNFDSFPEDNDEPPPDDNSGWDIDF", "conditions": "kinase PKG1; 10 μM free compound; HeLa Placenta lysate mix", "procedure": "as §1"}, "[8]": {"biological_target": "T8, kinases from mixed HeLa placenta lysates (Homo sapiens, UniProt Q6PHR2)", "T8 construct": "capturing and identification of kinases from mixed HeLa placenta lysates; endogenous in cells; host or cells: mixed lysate of HeLa cells and placenta tissue", "conditions": "kinase ULK3; 10 μM free compound; HeLa Placenta lysate mix", "procedure": "as §1"}, "[9]": {"biological_target": "T9, kinases from mixed HeLa placenta lysates (Homo sapiens, UniProt Q8TD19)", "T9 construct": "capturing and identification of kinases from mixed HeLa placenta lysates; endogenous in cells; host or cells: mixed lysate of HeLa cells and placenta tissue", "conditions": "kinase NEK9; 10 μM free compound; HeLa Placenta lysate mix", "procedure": "as §1"}, "[10]": {"biological_target": "T10, kinases from mixed HeLa placenta lysates (Homo sapiens, UniProt Q16584)", "T10 construct": "capturing and identification of kinases from mixed HeLa placenta lysates; endogenous in cells; host or cells: mixed lysate of HeLa cells and placenta tissue", "conditions": "kinase MLK3; 10 μM free compound; HeLa Placenta lysate mix", "procedure": "as §1"}, "[11]": {"biological_target": "T11, kinases from mixed HeLa placenta lysates (Homo sapiens, UniProt Q13163)", "T11 construct": "capturing and identification of kinases from mixed HeLa placenta lysates; endogenous in cells; host or cells: mixed lysate of HeLa cells and placenta tissue", "T11 sequence (Q13163 whole entry)": "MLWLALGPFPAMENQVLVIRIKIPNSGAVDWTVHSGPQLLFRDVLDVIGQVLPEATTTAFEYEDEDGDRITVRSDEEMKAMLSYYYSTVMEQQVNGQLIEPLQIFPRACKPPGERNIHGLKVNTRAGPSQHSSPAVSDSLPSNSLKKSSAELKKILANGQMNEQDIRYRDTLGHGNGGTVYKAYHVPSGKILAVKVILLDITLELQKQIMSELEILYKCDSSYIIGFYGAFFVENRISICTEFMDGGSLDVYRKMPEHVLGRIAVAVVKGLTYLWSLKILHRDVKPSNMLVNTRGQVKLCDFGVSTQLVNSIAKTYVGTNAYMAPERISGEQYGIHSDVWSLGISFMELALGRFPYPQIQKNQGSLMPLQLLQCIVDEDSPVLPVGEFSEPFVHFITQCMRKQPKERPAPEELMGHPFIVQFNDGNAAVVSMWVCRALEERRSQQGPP", "conditions": "kinase MAP2K5; 10 μM free compound; HeLa Placenta lysate mix", "procedure": "as §1"}, "[12]": {"biological_target": "T12, kinases from mixed HeLa placenta lysates (Homo sapiens, UniProt Q13470)", "T12 construct": "capturing and identification of kinases from mixed HeLa placenta lysates; endogenous in cells; host or cells: mixed lysate of HeLa cells and placenta tissue", "T12 sequence (Q13470 whole entry)": "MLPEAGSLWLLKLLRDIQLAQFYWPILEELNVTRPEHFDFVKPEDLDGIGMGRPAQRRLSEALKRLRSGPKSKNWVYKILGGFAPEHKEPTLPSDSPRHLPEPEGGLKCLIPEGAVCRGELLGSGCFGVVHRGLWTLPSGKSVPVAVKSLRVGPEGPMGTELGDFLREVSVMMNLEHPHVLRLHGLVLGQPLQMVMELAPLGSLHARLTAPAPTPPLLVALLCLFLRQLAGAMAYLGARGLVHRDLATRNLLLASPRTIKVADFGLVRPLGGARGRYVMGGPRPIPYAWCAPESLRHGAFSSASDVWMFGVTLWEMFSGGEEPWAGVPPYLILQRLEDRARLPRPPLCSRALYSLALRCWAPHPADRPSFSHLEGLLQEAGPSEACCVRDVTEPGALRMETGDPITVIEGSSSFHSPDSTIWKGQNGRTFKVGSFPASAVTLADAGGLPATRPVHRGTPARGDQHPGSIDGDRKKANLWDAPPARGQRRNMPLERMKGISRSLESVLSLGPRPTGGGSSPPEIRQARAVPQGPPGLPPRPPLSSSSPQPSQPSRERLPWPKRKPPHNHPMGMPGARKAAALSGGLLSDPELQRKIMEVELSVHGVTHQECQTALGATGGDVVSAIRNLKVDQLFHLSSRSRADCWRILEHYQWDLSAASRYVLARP", "conditions": "kinase TNK1; 10 μM free compound; HeLa Placenta lysate mix", "procedure": "as §1"}, "[13]": {"biological_target": "T13, kinases from mixed HeLa placenta lysates (Homo sapiens, UniProt O14965)", "T13 construct": "capturing and identification of kinases from mixed HeLa placenta lysates; endogenous in cells; host or cells: mixed lysate of HeLa cells and placenta tissue", "T13 sequence (O14965 whole entry)": "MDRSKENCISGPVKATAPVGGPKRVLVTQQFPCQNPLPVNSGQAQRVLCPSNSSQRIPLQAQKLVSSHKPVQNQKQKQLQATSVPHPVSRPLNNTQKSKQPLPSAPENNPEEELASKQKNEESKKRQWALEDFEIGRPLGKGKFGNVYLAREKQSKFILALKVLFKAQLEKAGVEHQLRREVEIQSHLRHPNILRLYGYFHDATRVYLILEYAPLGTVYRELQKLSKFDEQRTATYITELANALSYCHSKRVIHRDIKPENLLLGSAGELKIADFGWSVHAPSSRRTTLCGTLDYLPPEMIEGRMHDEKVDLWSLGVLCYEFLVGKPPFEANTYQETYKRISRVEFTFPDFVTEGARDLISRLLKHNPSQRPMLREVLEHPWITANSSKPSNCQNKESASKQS", "conditions": "kinase AurA; 10 μM free compound; HeLa Placenta lysate mix", "procedure": "as §1"}, "[14]": {"biological_target": "T14, kinases from mixed HeLa placenta lysates (Homo sapiens, UniProt O94804)", "T14 construct": "capturing and identification of kinases from mixed HeLa placenta lysates; endogenous in cells; host or cells: mixed lysate of HeLa cells and placenta tissue", "conditions": "kinase LOK; 10 μM free compound; HeLa Placenta lysate mix", "procedure": "as §1"}, "[15]": {"biological_target": "T15, kinases from mixed HeLa placenta lysates (Homo sapiens, UniProt Q5S007)", "T15 construct": "capturing and identification of kinases from mixed HeLa placenta lysates; endogenous in cells; host or cells: mixed lysate of HeLa cells and placenta tissue", "conditions": "kinase LRRK2; 10 μM free compound; HeLa Placenta lysate mix", "procedure": "as §1"}, "[16]": {"biological_target": "T16, kinases from mixed HeLa placenta lysates (Homo sapiens, UniProt Q9Y6R4)", "T16 construct": "capturing and identification of kinases from mixed HeLa placenta lysates; endogenous in cells; host or cells: mixed lysate of HeLa cells and placenta tissue", "conditions": "kinase MAP3K4; 10 μM free compound; HeLa Placenta lysate mix", "procedure": "as §1"}, "[17]": {"biological_target": "T17, kinases from mixed HeLa placenta lysates (Homo sapiens, UniProt P48426)", "T17 construct": "capturing and identification of kinases from mixed HeLa placenta lysates; endogenous in cells; host or cells: mixed lysate of HeLa cells and placenta tissue", "T17 sequence (P48426 whole entry)": "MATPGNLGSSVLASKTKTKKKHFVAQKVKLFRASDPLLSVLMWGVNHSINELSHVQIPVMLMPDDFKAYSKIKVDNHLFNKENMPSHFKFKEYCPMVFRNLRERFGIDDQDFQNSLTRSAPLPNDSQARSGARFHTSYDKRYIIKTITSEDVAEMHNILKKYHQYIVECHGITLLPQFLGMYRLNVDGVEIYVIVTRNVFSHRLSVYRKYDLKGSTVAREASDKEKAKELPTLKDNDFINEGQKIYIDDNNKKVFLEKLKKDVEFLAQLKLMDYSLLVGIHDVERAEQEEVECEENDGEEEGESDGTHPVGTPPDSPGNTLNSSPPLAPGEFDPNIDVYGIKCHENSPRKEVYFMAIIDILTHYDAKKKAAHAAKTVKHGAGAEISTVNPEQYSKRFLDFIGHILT", "conditions": "kinase PIP5K2A; 10 μM free compound; HeLa Placenta lysate mix", "procedure": "as §1"}, "[18]": {"biological_target": "T18, kinases from mixed HeLa placenta lysates (Homo sapiens, UniProt P12931)", "T18 construct": "capturing and identification of kinases from mixed HeLa placenta lysates; endogenous in cells; host or cells: mixed lysate of HeLa cells and placenta tissue", "conditions": "kinase SRC; 10 μM free compound; HeLa Placenta lysate mix", "procedure": "as §1"}, "[19]": {"biological_target": "T19, kinases from mixed HeLa placenta lysates (Homo sapiens, UniProt P45983)", "T19 construct": "capturing and identification of kinases from mixed HeLa placenta lysates; endogenous in cells; host or cells: mixed lysate of HeLa cells and placenta tissue", "T19 sequence (P45983 whole entry)": "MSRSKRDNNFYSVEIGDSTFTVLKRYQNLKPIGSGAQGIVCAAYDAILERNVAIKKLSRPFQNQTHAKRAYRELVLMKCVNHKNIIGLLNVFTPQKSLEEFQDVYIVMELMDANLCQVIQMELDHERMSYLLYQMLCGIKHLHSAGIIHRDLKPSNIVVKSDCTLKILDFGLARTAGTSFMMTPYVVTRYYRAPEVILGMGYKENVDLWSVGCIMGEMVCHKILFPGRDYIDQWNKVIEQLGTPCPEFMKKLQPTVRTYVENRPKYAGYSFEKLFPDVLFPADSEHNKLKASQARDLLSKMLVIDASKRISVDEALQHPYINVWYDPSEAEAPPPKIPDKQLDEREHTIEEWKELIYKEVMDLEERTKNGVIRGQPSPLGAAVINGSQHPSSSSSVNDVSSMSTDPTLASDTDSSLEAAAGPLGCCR", "conditions": "kinase JNK1; 10 μM free compound; HeLa Placenta lysate mix", "procedure": "as §1"}, "[20]": {"biological_target": "T20, kinases from mixed HeLa placenta lysates (Homo sapiens, UniProt P43405)", "T20 construct": "capturing and identification of kinases from mixed HeLa placenta lysates; endogenous in cells; host or cells: mixed lysate of HeLa cells and placenta tissue", "conditions": "kinase SYK; 10 μM free compound; HeLa Placenta lysate mix", "procedure": "as §1"}, "[21]": {"biological_target": "T21, kinases from mixed HeLa placenta lysates (Homo sapiens, UniProt P45984)", "T21 construct": "capturing and identification of kinases from mixed HeLa placenta lysates; endogenous in cells; host or cells: mixed lysate of HeLa cells and placenta tissue", "conditions": "kinase JNK2; 10 μM free compound; HeLa Placenta lysate mix", "procedure": "as §1"}, "[22]": {"biological_target": "T22, kinases from mixed HeLa placenta lysates (Homo sapiens, UniProt P06493)", "T22 construct": "capturing and identification of kinases from mixed HeLa placenta lysates; endogenous in cells; host or cells: mixed lysate of HeLa cells and placenta tissue", "conditions": "kinase CDC2; 10 μM free compound; HeLa Placenta lysate mix", "procedure": "as §1"}, "[23]": {"biological_target": "T23, kinases from mixed HeLa placenta lysates (Homo sapiens, UniProt O75716)", "T23 construct": "capturing and identification of kinases from mixed HeLa placenta lysates; endogenous in cells; host or cells: mixed lysate of HeLa cells and placenta tissue", "T23 sequence (O75716 whole entry)": "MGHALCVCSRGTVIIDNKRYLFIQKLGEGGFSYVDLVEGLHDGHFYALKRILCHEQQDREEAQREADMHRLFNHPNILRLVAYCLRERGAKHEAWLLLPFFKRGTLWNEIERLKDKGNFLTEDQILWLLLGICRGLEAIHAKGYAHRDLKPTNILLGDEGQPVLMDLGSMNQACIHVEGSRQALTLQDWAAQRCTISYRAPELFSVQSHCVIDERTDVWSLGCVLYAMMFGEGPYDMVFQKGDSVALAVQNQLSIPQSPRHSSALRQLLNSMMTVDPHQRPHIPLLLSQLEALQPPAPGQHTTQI", "conditions": "kinase MPSK1; 10 μM free compound; HeLa Placenta lysate mix", "procedure": "as §1"}, "[24]": {"biological_target": "T24, kinases from mixed HeLa placenta lysates (Homo sapiens, UniProt Q96GD4)", "T24 construct": "capturing and identification of kinases from mixed HeLa placenta lysates; endogenous in cells; host or cells: mixed lysate of HeLa cells and placenta tissue", "conditions": "kinase AurB; 10 μM free compound; HeLa Placenta lysate mix", "procedure": "as §1"}}, "data": [{"smiles": "CS(=O)(=O)Nc1ccccc1Nc1nc(Nc2cccc(OCCN)c2)ncc1F", "note": "[CZC25342, N-(2-(2-(3-(2-aminoethoxy)phenylamino)-5-fluoropyrimidin-4-ylamino)phenyl)methanesulfonamide]", "values": [{"measurement": "Competition % PHKg2", "setting": "[1]", "result": 93.4, "unit": "%"}, {"measurement": "Competition % HIPK3", "setting": "[2]", "result": 95.4, "unit": "%"}, {"measurement": "Competition % RSK3", "setting": "[3]", "result": 95.5, "unit": "%"}, {"measurement": "Competition % CDK9", "setting": "[4]", "result": 97.6, "unit": "%"}, {"measurement": "Competition % TGFbR1", "setting": "[5]", "result": 95.6, "unit": "%"}, {"measurement": "Competition % JAK1", "setting": "[6]", "result": 96.7, "unit": "%"}, {"measurement": "Competition % PKG1", "setting": "[7]", "result": 79.3, "unit": "%"}, {"measurement": "Competition % ULK3", "setting": "[8]", "result": 94.8, "unit": "%"}, {"measurement": "Competition % NEK9", "setting": "[9]", "result": 83, "unit": "%"}, {"measurement": "Competition % MLK3", "setting": "[10]", "result": 94.9, "unit": "%"}, {"measurement": "Competition % MAP2K5", "setting": "[11]", "result": 87.4, "unit": "%"}, {"measurement": "Competition % TNK1", "setting": "[12]", "result": 94.1, "unit": "%"}, {"measurement": "Competition % AurA", "setting": "[13]", "result": 93.6, "unit": "%"}, {"measurement": "Competition % LOK", "setting": "[14]", "result": 97.7, "unit": "%"}, {"measurement": "Competition % LRRK2", "setting": "[15]", "result": 87.8, "unit": "%"}, {"measurement": "Competition % MAP3K4", "setting": "[16]", "result": 92.2, "unit": "%"}, {"measurement": "Competition % PIP5K2A", "setting": "[17]", "result": 98.7, "unit": "%"}, {"measurement": "Competition % SRC", "setting": "[18]", "result": 89.5, "unit": "%"}, {"measurement": "Competition % JNK1", "setting": "[19]", "result": 84.3, "unit": "%"}, {"measurement": "Competition % SYK", "setting": "[20]", "result": 94.8, "unit": "%"}, {"measurement": "Competition % JNK2", "setting": "[21]", "result": 83.8, "unit": "%"}, {"measurement": "Competition % CDC2", "setting": "[22]", "result": 94.3, "unit": "%"}, {"measurement": "Competition % MPSK1", "setting": "[23]", "result": 92.1, "unit": "%"}, {"measurement": "Competition % AurB", "setting": "[24]", "result": 93.1, "unit": "%"}]}]}
